{"source": "patent EP4509142A1", "about": "“FGFR4 AS TARGET IN CANCER TREATMENT” (Ona Therapeutics S.L., priority 2023, dated 2025)", "test_in_all_cases": "Dose-response to palbociclib, CyQUANT NF cell proliferation after 4 days", "format_in_all_cases": "cell-based", "key": {"ZR751": {"test_system": "ZR751", "details": "Homo sapiens, ZR-75-1", "method": "(§1) The inventors next generated experimental cell lines models with acquired resistance to palbociclib derived from commercially available breast cancer cell lines MCF7 and T47D (ATCC), which were cultured according to supplier's recommendation. An MCF7-derived palbociclib-resistant (MCF7-PR) and a T47D-derived palbociclib-resistant (T47D-PR) cell lines were established by treating MCF7 and T47D with palbociclib for 6 months, starting at low concentration (1 nM) and increasing them at each passage until reaching 1 µM). MCF7-PR and T47D-PR cells were maintained in complete medium with 500 nM of palbociclib. The IC50 of sensitive MCF7 and T47D as well as derived palbociclib-resistant MCF7-PR and T47D-PR cell lines was evaluated by seeding 5000 tumor cells per well in 96-well plates and adding the following day increasing doses of Palbociclib. Proliferation was assessed after 4 days with CyQUANT NF Cell Proliferation (ThermoFisher Scientific) according to manufacturer's instructions. Fluorescence measurements were taken using FL800 Fluorescence plate reader with excitation at 485 nm and emission detection at 520 nm. Surviving fraction was calculated relative to untreated control cells using the formula: % Cell viability = (treated/untreated)*100 and IC^50 values were calculated with a non-linear regression model using GraphPad PRISM software.\n(§2) Next, FGFR4-depletion was induced by means of stable shRNA expression and confirmed by Western blotting using standard procedures. Specifically, sensitive MCF7 and resistant MCFR7-PR and ZR751 were infected with two independent stable FGFR4 shRNAs (shFGFR4#1 and shFGFR4#2) and, as a control, a non-targeting scramble shRNA (shControl) (Fig.2C-2D). Response to palbociclib was evaluated by incubating the cells with increasing concentrations of palbociclib as described above.\nIn order to validate FGFR4 as a driver of CDK4/6i resistance, the inventors developed ZR751 cells that overexpressed wild-type FGFR4 (FGFR4wt) or constitutively active FGFR4 (FGFR4 Y367C) (Roidl et al., 2010). Control cells were infected with the backbone vector expressing red fluorescent protein (RFP)."}, "T47D-PR": {"test_system": "T47D-PR", "details": "palbociclib-resistant T47D-PR", "method": "as §1"}, "MCF7": {"test_system": "MCF7", "details": "Homo sapiens; parental sensitive MCF7", "method": "as §1"}, "T47D": {"test_system": "T47D", "details": "Homo sapiens; parental sensitive T47D", "method": "as §1"}, "MCF7-PR": {"test_system": "MCF7-PR", "method": "as §1, §2"}}, "note": "Like-named read-outs stand apart in the source and are kept apart here.", "data": [{"smiles": "CC(=O)c1c(C)c2cnc(Nc3ccc(N4CCNCC4)cn3)nc2n(C2CCCC2)c1=O", "note": "[palbociclib]", "values": [{"measurement": "IC50", "setting": "ZR751; FGFR4 knockdown shFGFR4#1, read-out: IC50 ZR751 shFGFR4#1", "result": 0.0802, "unit": "µM"}, {"measurement": "IC50", "setting": "ZR751; FGFR4 knockdown shFGFR4#2, read-out: IC50 ZR751 shFGFR4#2", "result": 0.125, "unit": "µM"}, {"measurement": "IC50", "setting": "ZR751; control cells with backbone vector expressing RFP, read-out: IC50 ZR751 RFP", "result": 0.354, "unit": "µM"}, {"measurement": "IC50", "setting": "ZR751; non-targeting scramble shRNA, read-out: IC50 ZR751 shControl", "result": 3.8, "unit": "µM"}, {"measurement": "IC50", "setting": "ZR751; overexpressing wild-type FGFR4, read-out: IC50 ZR751 FGFR4wt", "result": "~4200", "unit": "µM"}, {"measurement": "IC50", "setting": "T47D-PR", "result": 1.8, "unit": "µM"}, {"measurement": "IC50", "setting": "MCF7", "result": 0.25, "unit": "µM"}, {"measurement": "IC50", "setting": "T47D", "result": 0.05, "unit": "µM"}, {"measurement": "IC50", "setting": "MCF7-PR; FGFR4 knockdown shFGFR4#1, read-out: IC50 MCF7-PR shFGFR4#1", "result": 0.576, "unit": "µM"}, {"measurement": "IC50", "setting": "MCF7-PR; FGFR4 knockdown shFGFR4#2, read-out: IC50 MCF7-PR shFGFR4#2", "result": 0.449, "unit": "µM"}, {"measurement": "IC50", "setting": "MCF7-PR; non-targeting scramble shRNA, read-out: IC50 MCF7-PR shControl", "result": 1.55, "unit": "µM"}, {"measurement": "IC50", "setting": "MCF7-PR; palbociclib-resistant MCF7-PR, read-out: IC50 MCF7-PR", "result": 2, "unit": "µM"}]}]}
